Patent publication US11040036B2, “Pyruvate kinase activators for use in treating blood disorders” (Agios Pharmaceuticals, Inc., priority 2017, dated 2021)

What was measured:
PKR K410E = PKR K410E (Homo sapiens, UniProt P30613, K410E); experiment: PKR mutant assay (AC50), PKR K410E; format: biochemical; conditions: PKR K410E mutant enzyme
Procedure, shortened: (§1)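 Human wild-type PKR or R510Q/K410E mutant (40-400 ng/well) in 50 mM Tris pH 7.5, 100 mM KCl, 5 mM MgCl2, 1 mM DTT, 0.03% BSA with PEP 0.1-0.5 mM, 180 μM NADH and LDH coupling. Compound (11-point 3-fold series from 100 μM final) preincubated 60 min at room temperature. Reaction was started with ADP (0.2-1.65 mM) and NADH depletion was followed at 340 nm to give AC50.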

PKR R510Q = PKR R510Q (Homo sapiens, UniProt P30613, R510Q); experiment: PKR mutant assay (AC50), PKR R510Q; format: biochemical; conditions: PKR R510Q mutant enzyme; for AC50: read-out: PK R510Q AC50
PKR R510Q, sequence (P30613 whole entry R510Q): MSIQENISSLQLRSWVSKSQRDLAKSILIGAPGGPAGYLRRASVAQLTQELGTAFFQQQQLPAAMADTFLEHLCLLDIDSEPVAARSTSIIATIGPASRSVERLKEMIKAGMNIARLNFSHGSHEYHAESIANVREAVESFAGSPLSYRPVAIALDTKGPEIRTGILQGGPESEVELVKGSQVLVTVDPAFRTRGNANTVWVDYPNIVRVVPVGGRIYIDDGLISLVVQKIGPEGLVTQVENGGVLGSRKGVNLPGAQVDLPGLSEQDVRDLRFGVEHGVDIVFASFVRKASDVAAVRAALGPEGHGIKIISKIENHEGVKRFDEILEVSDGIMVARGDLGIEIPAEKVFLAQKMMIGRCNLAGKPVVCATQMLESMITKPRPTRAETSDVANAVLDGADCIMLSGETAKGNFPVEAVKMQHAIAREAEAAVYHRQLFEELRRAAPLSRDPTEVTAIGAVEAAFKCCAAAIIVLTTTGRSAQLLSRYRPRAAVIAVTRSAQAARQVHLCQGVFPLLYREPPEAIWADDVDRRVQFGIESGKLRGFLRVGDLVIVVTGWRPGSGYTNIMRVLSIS
Procedure, shortened: as §1

wild type PKR [1] = target: T1, wild type PKR (Homo sapiens, UniProt P30613); experiment: Cell based ATP assay in purified red blood cells; parameters: endogenous in cells; host or cells: purified red blood cells from blood of healthy volunteers; conditions: RBCs, overnight at 37° C., ATP levels by Cell-Titer-Glo
T1 sequence (P30613 whole entry): as the sequence (P30613 whole entry R510Q) above, with Q510R counted along it
Procedure, shortened: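 Leukocyte-depleted red cells from healthy volunteers were held in AGAM (PBS, glucose, adenine, mannitol) at 1×10^7 cells/mL. They were treated with 1:4 serial compound dilutions at 0.1% DMSO final and incubated overnight at 37 °C in humidity. ATP was then quantified by CellTiter-Glo luminescence.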

wild type PKR [2] = target: T1, wild type PKR; experiment: PKR mutant assay (AC50), wild type PKR; format: biochemical; conditions: wild type PKR enzyme; for AC50: read-out: PKR WT AC50
Procedure, shortened: as §1

PKR K410E, sequence (P30613 whole entry K410E): as the sequence (P30613 whole entry R510Q) above, with K410E, Q510R counted along it

Compound	AC50 (PKR K410E) [nM]	AC50 (PKR R510Q) [nM]	AC50 (wild type PKR [1]) [nM]	AC50 (wild type PKR [2]) [nM]	Cell based ATP assay AC50 (wild type PKR [1])	PKR K410E AC50 (PKR K410E)	PK R510Q AC50 (PKR R510Q)	PKR WT AC50 (wild type PKR [2])
Cn1ccc(Cc2nc3c(s2)c2cnn(Cc4ccn[nH]4)c(=O)c2n3C)n1	< 300	< 300	≤ 1000	< 300				
Cn1c2nc(Cn3cncn3)sc2c2cnn(Cc3cc[nH]n3)c(=O)c21	< 300	< 300	≤ 1000	< 300				
Cn1c2nc([C@@H](O)c3cc[nH]n3)sc2c2cnn(Cc3cc[nH]n3)c(=O)c21	< 300	< 300	≤ 1000	< 300				
COc1ncccc1Cn1ncc2c3sc(Cc4n[nH]cc4F)nc3n(C)c2c1=O	< 300	< 300	≤ 1000	< 300				
Cn1ccc(Cn2ncc3c4sc(Cc5ccccn5)nc4n(C)c3c2=O)n1	< 300	< 300	≤ 1000	< 300				
Cn1c2nc(Cn3ccnc3)sc2c2cnn(Cc3ccnc(N)n3)c(=O)c21	> 800	> 800		> 800	No Fit			
Cn1c2nc(Cn3cncn3)sc2c2cnn(Cc3n[nH]c(=O)[nH]3)c(=O)c21					No Fit	No Fit	No Fit	No Fit
CNc1ccc(F)c(Cn2ncc3c4sc(Cc5cc[nH]n5)nc4n(C)c3c2=O)n1	< 300	< 300	≤ 1000	< 300				
Cn1c2nc([C@H](O)c3cc[nH]n3)sc2c2cnn(Cc3cc[nH]n3)c(=O)c21	< 300	< 300	≤ 1000	< 300				
Cn1c2nc(Cc3n[nH]cc3F)sc2c2cnn(Cc3ccc[nH]c3=O)c(=O)c21	< 300	< 300	≤ 1000	< 300				
Cn1c2nc(Cc3ccccn3)sc2c2cnn(Cc3nccs3)c(=O)c21	< 300	< 300	≤ 1000	< 300				
Cn1ccc(Cn2ncc3c4sc(Cc5csc(CO)n5)nc4n(C)c3c2=O)n1	< 300	< 300	≤ 1000	< 300				
COCc1cn(C)nc1Cn1ncc2c3sc(Cc4cc[nH]n4)nc3n(C)c2c1=O	> 800	> 800	> 1000	> 800				
Cn1c2nc(Cc3ccccn3)sc2c2cnn(Cc3csc(N)n3)c(=O)c21	< 300	< 300	≤ 1000	< 300				
COc1sc(Br)nc1Cc1nc2c(s1)c1cnn(Cc3cc[nH]n3)c(=O)c1n2C	< 300	< 300	≤ 1000	< 300				
Cn1c2nc(Cn3ccc([N+](=O)[O-])n3)sc2c2cnn(Cc3cc[nH]n3)c(=O)c21	< 300	< 300	≤ 1000	< 300				
CN(C)c1cccc(Cc2nc3c(s2)c2cnn(Cc4cc[nH]n4)c(=O)c2n3C)n1	< 300	< 300	≤ 1000	< 300				
Cn1c2nc(Cc3cc[nH]n3)sc2c2cnn(Cc3nc(C#N)cs3)c(=O)c21	< 300	< 300	≤ 1000	< 300				

Continued, values first:

AC50 (PKR K410E) [nM]	AC50 (PKR R510Q) [nM]	AC50 (wild type PKR [1]) [nM]	AC50 (wild type PKR [2]) [nM]	Cell based ATP assay AC50 (wild type PKR [1])	PKR K410E AC50 (PKR K410E)	PK R510Q AC50 (PKR R510Q)	PKR WT AC50 (wild type PKR [2])	Compound
< 300	< 300	≤ 1000	< 300					Cn1c2nc(Cc3ncsc3F)sc2c2cnn(Cc3c[nH]nn3)c(=O)c21
< 300	< 300	≤ 1000	< 300					COc1cc(Cn2ncc3c4sc(Cc5cc[nH]n5)nc4n(C)c3c2=O)ccn1
< 300	< 300	≤ 1000	< 300					Cn1c2nc(Cc3cc[nH]n3)sc2c2cnn(Cc3cnc(N)s3)c(=O)c21
< 300	< 300	≤ 1000	< 300					Cn1c2nc(Cc3c[nH]nn3)sc2c2cnn(Cc3cc[nH]n3)c(=O)c21
< 300	< 300	≤ 1000	< 300					Cn1c2nc(Cc3n[nH]cc3F)sc2c2cnn(Cc3c[nH]nn3)c(=O)c21
< 300	< 300	≤ 1000	< 300					Cn1c2nc(Cc3cc[nH]n3)sc2c2cnn(Cc3cscn3)c(=O)c21
< 300	< 300	≤ 1000	< 300					Cn1c2nc(Cc3cc[nH]n3)sc2c2cnn(Cc3ncns3)c(=O)c21
< 300	< 300	≤ 1000	< 300					Cn1c2nc(Cc3cc[nH]n3)sc2c2cnn(Cc3ccn(N)n3)c(=O)c21
< 300	< 300	≤ 1000	< 300					Cn1cc(N)c(Cn2ncc3c4sc(Cc5cc[nH]n5)nc4n(C)c3c2=O)n1
< 300	< 300	≤ 1000	< 300					Cn1c2nc(Cc3cc[nH]n3)sc2c2cnn(Cc3coc(N)n3)c(=O)c21
< 300	< 300	≤ 1000	< 300					Cn1c2nc(Cc3c[nH]nn3)sc2c2cnn(Cc3c[nH]nn3)c(=O)c21
< 300	< 300	≤ 1000	< 300					Cn1c2nc(Cc3cscn3)sc2c2cnn(Cc3cscn3)c(=O)c21
< 300	< 300	≤ 1000	< 300					Cn1c2nc(Cc3c[nH]nn3)sc2c2cnn(Cc3cccc(N)n3)c(=O)c21
< 300	< 300	≤ 1000	< 300					Cn1c2nc(Cc3cc[nH]n3)sc2c2cnn(Cc3cc(F)cc(N)n3)c(=O)c21
< 300	< 300	≤ 1000	< 300					Cn1c2nc(Cc3n[nH]cc3F)sc2c2cnn(Cc3n[nH]cc3C(N)=O)c(=O)c21
< 300	< 300	≤ 1000	< 300					Cn1c2nc(Cc3cc[nH]n3)sc2c2cnn(Cc3nncs3)c(=O)c21
< 300	< 300	≤ 1000	< 300					Cn1c2nc(Cc3ccccn3)sc2c2cnn(Cc3cc[nH]n3)c(=O)c21
< 300	< 300	≤ 1000	< 300					Cn1c2nc(Cc3cc[nH]n3)sc2c2cnn(Cc3ncoc3Cl)c(=O)c21
< 300	< 300	≤ 1000	< 300					Cn1c2nc(Cc3cc[nH]n3)sc2c2cnn(Cc3cocn3)c(=O)c21
301 to 800	< 300	≤ 1000	< 300					Cn1c2nc(Cc3cc[nH]n3)sc2c2cnn(Cc3nccc(N)n3)c(=O)c21
< 300	< 300	≤ 1000	< 300					COc1scnc1Cc1nc2c(s1)c1cnn(Cc3cc[nH]n3)c(=O)c1n2C
< 300	< 300	≤ 1000	< 300					Cn1c2nc(Cc3n[nH]cc3F)sc2c2cnn(Cc3n[nH]cc3F)c(=O)c21
